The experiment addresses T1, human Farnesoid X Receptor (FXR) ligand binding domain (GST-FXR LBD) (Homo sapiens, UniProt Q96RI1).
T1 construct: purchased Invitrogen
T1 sequence (Q96RI1 193-472 isoform Q96RI1-2): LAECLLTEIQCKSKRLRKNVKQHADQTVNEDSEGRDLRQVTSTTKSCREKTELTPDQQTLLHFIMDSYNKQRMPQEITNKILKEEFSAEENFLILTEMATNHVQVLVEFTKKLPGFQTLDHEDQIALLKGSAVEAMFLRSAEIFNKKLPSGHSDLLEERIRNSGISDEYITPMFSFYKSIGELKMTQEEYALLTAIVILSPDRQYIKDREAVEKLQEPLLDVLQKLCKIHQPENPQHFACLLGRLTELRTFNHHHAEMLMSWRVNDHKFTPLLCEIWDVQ
The experiment in a line: Human GST-FXR LBD co-activator interaction assay (FXR HTRF assay). The experiment is classed as biochemical. The following applies: GST-FXR LBD interaction with biotin-labeled SRC-1 peptide, FRET, response relative to GW4064, read-out: FXR coactivator interaction assay (HTRF). A general note: In TR-FRET formats the signal depends on donor and acceptor labels being close together.

The values that follow come from patent publication US11021446B2 (NOVARTIS AG, priority 2013, dated 2021).

pEC50: −log10 of the molar value.

Take `Cc1cccc(CN(Cc2ccc(C(=O)O)cc2F)C(=O)c2nn(C)c3c2COc2ccc(F)cc2-3)c1` [Compound 85, 3-fluoro-4-((8-fluoro-1-methyl-N-(3-methylbenzyl)-1,4-dihydrochromeno[4,3-c]pyrazole-3-carboxamido)methyl)benzoic acid]: the pEC50 was 7.46.

As to `Cn1nc(C(=O)N(Cc2ccc(C(=O)O)cc2)Cc2ccc3[nH]ccc3c2)c2c1-c1cc(Cl)ccc1OC2` [Compound 86, 4-((N-((1H-indol-5-yl)methyl)-8-chloro-1-methyl-1,4-dihydrochromeno[4,3-c]pyrazole-3-carboxamido)methyl)benzoic acid], the pEC50 is 7.92.

On to `Cn1nc(C(=O)N(Cc2ccc(C(=O)O)nc2)Cc2cccc(F)c2)c2c1-c1cc(Cl)ccc1OC2` [Compound 87, 5-((8-chloro-N-(3-fluorobenzyl)-1-methyl-1,4-dihydrochromeno[4,3-c]pyrazole-3-carboxamido)methyl)picolinic acid], for which the pEC50 is 7.55.

For the molecule `Cn1nc(C(=O)N(Cc2ccc(C(=O)O)cc2)Cc2cncc(F)c2)c2c1-c1cc(Cl)ccc1OC2` [Compound 88, 4-((8-chloro-N-((5-fluoropyridin-3-yl)methyl)-1-methyl-1,4-dihydrochromeno[4,3-c]pyrazole-3-carboxamido)methyl)benzoic acid], the pEC50 is 7.82.

On to `Cn1nc(C(=O)N(Cc2cccc(F)c2)Cc2ccc(C(=O)O)c(F)c2)c2c1-c1cc(Cl)ccc1OC2` [Compound 90, 4-((8-chloro-N-(3-fluorobenzyl)-1-methyl-1,4-dihydrochromeno[4,3-c]pyrazole-3-carboxamido)methyl)-2-fluorobenzoic acid], for which the pEC50 was 8.30.

With `Cn1nc(C(=O)N(Cc2ccccc2)Cc2ccc(C(=O)O)c(F)c2)c2c1-c1cc(Cl)ccc1OC2` [Compound 91, 4-((N-benzyl-8-chloro-1-methyl-1,4-dihydrochromeno[4,3-c]pyrazole-3-carboxamido)methyl)-2-fluorobenzoic acid], the pEC50 is 8.19.

Regarding `Cn1nc(C(=O)N(Cc2ccc(C(=O)O)cc2)Cc2ccccc2F)c2c1-c1cc(Cl)ccc1OC2` [Compound 92, 4-((8-chloro-N-(2-fluorobenzyl)-1-methyl-1,4-dihydrochromeno[4,3-c]pyrazole-3-carboxamido)methyl)benzoic acid], the pEC50 is 7.85.

With `Cn1nc(C(=O)N(Cc2ccccc2F)Cc2ccc(C(=O)O)cc2F)c2c1-c1cc(Cl)ccc1OC2` [Compound 93, 4-((8-chloro-N-(2-fluorobenzyl)-1-methyl-1,4-dihydrochromeno[4,3-c]pyrazole-3-carboxamido)methyl)-3-fluorobenzoic acid], the pEC50 is 7.89.

On to `Cn1nc(C(=O)N(Cc2ccccc2F)Cc2ccc(C(=O)O)cc2F)c2c1-c1cc(F)ccc1OC2` [Compound 94, 3-fluoro-4-((8-fluoro-N-(2-fluorobenzyl)-1-methyl-1,4-dihydrochromeno[4,3-c]pyrazole-3-carboxamido)methyl)benzoic acid], for which the pEC50 is 7.49.

`Cn1nc(C(=O)N(Cc2ccc(C(=O)O)cc2)Cc2cccc(F)c2)c2c1-c1cc(Cl)ccc1OC2` [Compound 95, 4-((8-chloro-N-(3-fluorobenzyl)-1-methyl-1,4-dihydrochromeno[4,3-c]pyrazole-3-carboxamido)methyl)benzoic acid]: the pEC50 is 8.46.

For the molecule `Cn1nc(C(=O)N(Cc2cccc(F)c2)Cc2ccc(C(=O)O)cc2F)c2c1-c1cc(Cl)ccc1OC2` [Compound 96, 4-((8-chloro-N-(3-fluorobenzyl)-1-methyl-1,4-dihydrochromeno[4,3-c]pyrazole-3-carboxamido)methyl)-3-fluorobenzoic acid], the pEC50 was 8.44.

With `Cn1nc(C(=O)N(Cc2ccc(C(=O)O)c(F)c2)Cc2ccccc2F)c2c1-c1cc(Cl)ccc1OC2` [Compound 97, 4-((8-chloro-N-(2-fluorobenzyl)-1-methyl-1,4-dihydrochromeno[4,3-c]pyrazole-3-carboxamido)methyl)-2-fluorobenzoic acid], the pEC50 was 7.77.

`Cc1nc(C(=O)O)ccc1CN(Cc1cccc(F)c1)C(=O)c1nn(C)c2c1COc1ccc(Cl)cc1-2` [Compound 99, 5-((8-chloro-N-(3-fluorobenzyl)-1-methyl-1,4-dihydrochromeno[4,3-c]pyrazole-3-carboxamido)methyl)-6-methylpicolinic acid]: the pEC50 was 7.54.

For `Cn1nc(C(=O)N(CCNc2cc(C(=O)O)ccc2F)Cc2ccccc2F)c2c1-c1cc(Cl)ccc1OC2` [Compound 101, 3-((2-(8-chloro-N-(2-fluorobenzyl)-1-methyl-1,4-dihydrochromeno[4,3-c]pyrazole-3-carboxamido)ethyl)amino)-4-fluorobenzoic Acid], the pEC50 was 8.26.
